Test system: IFNα-induced pSTAT5 (pY694) in CD3 positive cells of human whole blood
Experiment: IFNα-Induced STAT Phosphorylation in Human Whole Blood
Type: cell-based
Conditions: Homo sapiens, 1 h compound incubation, 1000 U/mL recombinant human IFNα A/D for 15 min, pSTAT5 in CD3 positive population, read-out: Human WB IFNα-Induced Stat Phosph. (IC50)
Method in brief: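 Read-out is median fluorescence intensity of pSTAT5 (pY694) in the CD3-positive gate, by flow cytometry after fix/lyse and permeabilization. Before that, whole human blood anticoagulated with EDTA or ACD-A received compound for an hour and 1000 U/mL IFNα A/D for 15 min.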

IC50	Structure (SMILES)
530 nM	[2H]C([2H])([2H])NC(=O)c1nnc(NC(=O)C2CC2)cc1Nc1cccc(-c2cc(C(=O)NCCC3CCCN3C)n(C)n2)c1OC (stereo not drawn) [Example 533]
50 nM	[2H]C([2H])([2H])NC(=O)c1nnc(NC(=O)C2CC2)cc1Nc1cccc(-c2cnc(C(=O)N(C)C)s2)c1OC [Example 239, 5-(3-((6-(cyclopropanecarboxamido)-3-((methyl-d3)carbamoyl)pyridazin-4-yl)amino)-2-methoxyphenyl)-N,N-dimethylthiazole-2-carboxamide]
> 10000 nM	[2H]C([2H])([2H])NC(=O)c1nnc(NC(=O)C2CC2)cc1Nc1cccc(-c2ncc(C(=O)N3CCc4ccccc4C3)s2)c1OC [Example 298]
350 nM	[2H]C([2H])([2H])NC(=O)c1nnc(NC(=O)C2CC2)cc1Nc1cc(F)cc(-c2cc(C(=O)N3CCCN(C)CC3)n(C)n2)c1OC [Example 517]
660 nM	[2H]C([2H])([2H])NC(=O)c1nnc(NC(=O)C2CC2)cc1Nc1cccc(-n2cc(CN3CCN(S(C)(=O)=O)CC3)nn2)c1OC [Example 4]
840 nM	[2H]C([2H])([2H])NC(=O)c1nnc(NC(=O)C2CC2)cc1Nc1cccc(-c2cc(C(=O)NCC3CCN(C)C3)n(C)n2)c1OC (stereo not drawn) [Example 528]
1410 nM	COc1c(Nc2cc(N)nnc2C(N)=O)cccc1-c1ncc(C(=O)NCCC2CCCN2C)s1 (stereo not drawn) [Example 377]
1110 nM	[2H]C([2H])([2H])NC(=O)c1nnc(NC(=O)C2CC2)cc1Nc1cccc(-c2nc(CNC(=O)CNC)no2)c1OC [Example 154]
160 nM	[2H]C([2H])([2H])NC(=O)c1nnc(NC(=O)C2CC2)cc1Nc1cccc(-c2noc(CN3CCCC3=O)n2)c1OC [Example 79]
21 nM	[2H]C([2H])([2H])NC(=O)c1nnc(NC(=O)C2CC2)cc1Nc1cccc(-c2ncc(C(=O)N3CCN(S(=O)(=O)CC)CC3)s2)c1OC [Example 242]
3560 nM	[2H]C([2H])([2H])NC(=O)c1nnc(NC(=O)C2CC2)cc1Nc1cccc(-c2ccn(CCNC[C@H](O)CC)n2)c1OC [Example 474]
340 nM	[2H]C([2H])([2H])NC(=O)c1nnc(NC(=O)C2CC2)cc1Nc1cccc(-c2nc(C)c(C(=O)N3CCC(N4CCN(CCO)CC4)CC3)s2)c1OC [Example 359]
150 nM	[2H]C([2H])([2H])NC(=O)c1nnc(NC(=O)C2CC2)cc1Nc1cccc(-c2ncc(C(=O)N3C[C@@H](C)O[C@@H](C)C3)s2)c1OC [Example 275]
110 nM	[2H]C([2H])([2H])NC(=O)c1nnc(NC(=O)C2CC2)cc1Nc1cc(F)cc(-c2cc(C(=O)N3CCC[C@H]3CO)n(C)n2)c1OC [Example 507]
80 nM	[2H]C([2H])([2H])NC(=O)c1nnc(NC(=O)C2CC2)cc1Nc1cccc(-c2cc(C(=O)N3CCOCC3)n(C)n2)c1OC [Example 459]
14 nM	COc1c(Nc2cc(NC(=O)C3CC3)nnc2C(N)=O)cccc1-c1noc(CO)n1 [Example 70]
460 nM	COc1c(Nc2cc(NC(=O)C3CC3)nnc2C(N)=O)cccc1-c1ncc(C(=O)N2CCC(CCO)CC2)o1 [Example 416]
80 nM	[2H]C([2H])([2H])NC(=O)c1nnc(NC(=O)C2CC2)cc1Nc1cccc(-c2nc(C)c(C(=O)N3CCOCC3)s2)c1OC [Example 356]
> 10000 nM	[2H]C([2H])([2H])NC(=O)c1nnc(NC(=O)C2CC2)cc1Nc1cccc(-c2nc(-c3ccccc3)no2)c1OC [Example 123]

IC50	Structure (SMILES)
70 nM	[2H]C([2H])([2H])NC(=O)c1nnc(NC(=O)C2CC2)cc1Nc1cccc(-c2ncc(C(=O)N3CCCN(C)CC3)s2)c1OC [Example 294]
110 nM	[2H]C([2H])([2H])NC(=O)c1nnc(NC(=O)C2CC2)cc1Nc1cccc(-c2noc(CN3CC(O)C3)n2)c1OC [Example 80]
24 nM	[2H]C([2H])([2H])NC(=O)c1nnc(NC(=O)C2CC2)cc1Nc1cccc(-c2noc(CN3CCOCC3)n2)c1OC [Example 7]
180 nM	[2H]C([2H])([2H])NC(=O)c1nnc(NC(=O)C2CC2)cc1Nc1cc(F)cc(-c2cc(C(=O)N(C)CC)n(C)n2)c1OC [Example 505]
> 10000 nM	[2H]C([2H])([2H])NC(=O)c1nnc(NC(=O)C2CC2)cc1Nc1cccc(-c2nc(CC)no2)c1OC [Example 121]
320 nM	[2H]C([2H])([2H])NC(=O)c1nnc(NC(=O)C2CC2)cc1Nc1cccc(-c2nc(C)c(C(=O)NC3CCC(N(C)C)CC3)s2)c1OC (stereo not drawn) [Example 365]
130 nM	[2H]C([2H])([2H])NC(=O)c1nnc(NC(=O)C2CC2)cc1Nc1cccc(-c2ncc(CC(=O)N(C)C)s2)c1OC [Example 256]
560 nM	[2H]C([2H])([2H])NC(=O)c1nnc(NC(=O)C2CC2)cc1Nc1cccc(-c2ncc(C(=O)N3CC(=O)NC(=O)C3)s2)c1OC [Example 331]
13 nM	COc1c(Nc2cc(NC(=O)C3CC3)ncc2C(N)=O)cccc1-c1nc(CN2CCOCC2)no1 [Example 576, 6-(cyclopropanecarboxamido)-4-((2-methoxy-3-(3-(morpholinomethyl)-1,2,4-oxadiazol-5-yl)phenyl)amino)nicotinamide]
40 nM	CCN(CC)C1CCC(NC(=O)c2cnc(-c3cccc(Nc4cc(NC(=O)C5CC5)nnc4C(N)=O)c3OC)s2)CC1 (stereo not drawn) [Example 397]
190 nM	[2H]C([2H])([2H])NC(=O)c1nnc(NC(=O)C2CC2)cc1Nc1cccc(-c2nc(C)c(C(=O)N3CCC(N4CCCC4)CC3)s2)c1OC [Example 361]
180 nM	[2H]C([2H])([2H])NC(=O)c1nnc(NC(=O)C2CC2)cc1Nc1cccc(-c2nc(CN3CCN(C(=O)OC)CC3)no2)c1OC [Example 138]
490 nM	[2H]C([2H])([2H])NC(=O)c1nnc(NC(=O)C2CC2)cc1Nc1cccc(-c2nc(CN3CCN(C(=O)c4ccccn4)CC3)no2)c1OC [Example 130]
190 nM	[2H]C([2H])([2H])NC(=O)c1cnc(Nc2cc(C(C)(C)O)ccn2)cc1Nc1cc(F)cc(-c2cnn(C)n2)c1OC [Example 454]
370 nM	[2H]C([2H])([2H])NC(=O)c1nnc(NC(=O)C2CC2)cc1Nc1cc(F)cc(-c2cc(NC(C)=O)n(C)n2)c1OC [Example 500]
30 nM	[2H]C([2H])([2H])NC(=O)c1nnc(NC(=O)C2CC2)cc1Nc1cccc(-c2ncc(C(=O)NCCCN(C)C)s2)c1OC [Example 317]
690 nM	[2H]C([2H])([2H])NC(=O)c1cnc(NC(=O)C2CC2)cc1Nc1cccc(-c2nc(C(C)N3CCN(S(C)(=O)=O)CC3)no2)c1OC (stereo not drawn) [Example 223]
23 nM	COc1c(Nc2cc(NC(=O)C3CC3)nnc2C(N)=O)cccc1-c1noc(CN(C2CC2)S(C)(=O)=O)n1 [Example 60]
30 nM	COc1c(Nc2cc(NC(=O)C3CC3)nnc2C(N)=O)cccc1-c1ncc(C(=O)N2CCC(CCO)CC2)s1 [Example 400]

IC50	Structure (SMILES)
70 nM	[2H]C([2H])([2H])NC(=O)c1nnc(Nc2ccc(C)nn2)cc1Nc1cccc(-c2nc(CN3CCOCC3)no2)c1OC [Example 237]
180 nM	[2H]C([2H])([2H])NC(=O)c1nnc(Nc2ccc(C)nn2)cc1Nc1cccc(-c2ncc(CO)s2)c1OC [Example 393]
150 nM	[2H]C([2H])([2H])NC(=O)c1nnc(NC(=O)C2CC2)cc1Nc1cccc(-c2cc(C(=O)N3CCN(S(C)(=O)=O)CC3)n(C)n2)c1OC [Example 502]
6510 nM	[2H]C([2H])([2H])NC(=O)c1nnc(NC(=O)C2CC2)cc1Nc1cccc(-c2nc(CN3CC4CNCC4C3)no2)c1OC (stereo not drawn) [Example 232]
460 nM	[2H]C([2H])([2H])NC(=O)c1nnc(NC(=O)C2CC2)cc1Nc1cccc(-c2nc([C@H](NC(C)=O)[C@H](C)O)no2)c1OC [Example 203]
470 nM	[2H]C([2H])([2H])NC(=O)c1nnc(NC(=O)C2CC2)cc1Nc1cccc(-c2cc(C(=O)NC3CCC(N(C)C)CC3)n(C)n2)c1OC (stereo not drawn) [Example 534]
100 nM	COc1c(Nc2cc(NC(=O)C3CC3)nnc2C(N)=O)cccc1-c1ncc(C(=O)NCCC2CCCN2C)s1 (stereo not drawn) [Example 247]
830 nM	[2H]C([2H])([2H])NC(=O)c1nnc(NC(=O)C2CC2)cc1Nc1cccc(-c2cnn(CCNC(=O)CC#N)c2)c1OC [Example 559]
> 10000 nM	[2H]C([2H])([2H])NC(=O)c1nnc(NC(=O)C2CC2)cc1Nc1cccc(-c2ncc(C(=O)NCC(C)C)s2)c1OC [Example 310]
430 nM	[2H]C([2H])([2H])NC(=O)c1nnc(NC(=O)C2CC2)cc1Nc1cccc(-c2noc(CCC(=O)N3CCOCC3)n2)c1OC [Example 25]
630 nM	[2H]C([2H])([2H])NC(=O)c1nnc(NC(=O)C2CC2)cc1Nc1cccc(-c2nc(C3(N)CC3)no2)c1OC [Example 156]
14 nM	[2H]C([2H])([2H])NC(=O)c1nnc(NC(=O)C2CC2)cc1Nc1cccc(-c2ncc(C(=O)NCCC3CCCN3C)s2)c1OC (stereo not drawn) [Example 299]
4450 nM	[2H]C([2H])([2H])NC(=O)c1nnc(NC(=O)C2CC2)cc1Nc1cccc(-c2cc(C)n(CCN)n2)c1OC [Example 462]
150 nM	[2H]C([2H])([2H])NC(=O)c1nnc(NC(=O)C2CC2)cc1Nc1cccc(-c2ncc(C(=O)NCc3ccccc3)s2)c1OC [Example 289]
70 nM	[2H]C([2H])([2H])NC(=O)c1nnc(NC(=O)C2CC2)cc1Nc1cccc(-c2ncc(C(=O)N3CCS(=O)(=O)CC3)s2)c1OC [Example 273]
700 nM	[2H]C([2H])([2H])NC(=O)c1nnc(NC(=O)C2CC2)cc1Nc1cccc(-c2cc(C(=O)NCCCN(C)C)n(C)n2)c1OC [Example 537]
200 nM	[2H]C([2H])([2H])NC(=O)c1nnc(NC(=O)C2CC2)cc1Nc1cccc(-c2nc([C@@H](CO)NC(C)=O)no2)c1OC [Example 220]
5310 nM	[2H]C([2H])([2H])NC(=O)c1nnc(NC(=O)C2CC2)cc1Nc1cccc(-c2nc(CNC(=O)OC(C)(C)C)no2)c1OC [Example 142]
1300 nM	[2H]C([2H])([2H])NC(=O)c1nnc(NC(=O)C2CC2)cc1Nc1cccc(-c2cnn(CCNC(=O)CO)c2)c1OC [Example 558]

Reference: patent publication US12240840B2, “Amide-substituted heterocyclic compounds for the treatment of conditions related to the modulation of IL-12, IL-23 and/or IFN-alpha” (BRISTOL-MYERS SQUIBB COMPANY, priority 2018, dated 2025)
